Data: patent US20260223850A1, “SUBSTITUTED PYRROLIDONE COMPOUND, PREPARATION METHOD THEREFOR, COMPOSITION AND APPLICATION THEREOF” (QINGDAO KINGAGROOT CHEMICAL COMPOUND CO., LTD., priority 2023, published 2026)

Assays:
Format in all cases: in vivo
Digitaria sanguinalis = test: Seedling stage sealing experiment for water-seeding; details: 120 g a.i./ha, 15 days, fresh weight control rate
Outline: (§1)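 Scores (0 = no effect to 9 = dead) reflect fresh-weight control rate 15 days after spray application in greenhouse at 15, 30, 60 or 120 g a.i./ha, mean of three replicates. Seeds were broadcast and soil-covered in pots held moist in water-filled cultivation boxes.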

Echinochloa crusgalli = test: as above; details: 120 g a.i./ha, 15 days, fresh weight control rate
Echinochloa phyllopogon = test: as above; details: 120 g a.i./ha, 15 days, fresh weight control rate
Outline: as §1

Huaidao (rice cultivar) = test: Seedling stage sealing experiment for water-seeding (crop safety); details: 120 g a.i./ha, 15 days, fresh weight control rate; for Huaidao (rice cultivar) plant damage level (growth control rate): spray, seedling stage sealing for water-seeding; for Huaidao (rice cultivar) plant damage level: seedling stage sealing
Outline: as §1

[1] = spray, seedling stage sealing for water-seeding

| Structure (SMILES) | Digitaria sanguinalis activity level (growth control rate) (Digitaria sanguinalis; [1]) | Echinochloa crusgalli activity level (growth control rate) (Echinochloa crusgalli; [1]) | Echinochloa phyllopogon activity level (growth control rate) (Echinochloa phyllopogon; [1]) | Huaidao (rice cultivar) plant damage level (growth control rate) (Huaidao (rice cultivar)) | Digitaria sanguinalis activity level (growth control rate) (Digitaria sanguinalis; seedling stage sealing) | Echinochloa crusgalli activity level (growth control rate) (Echinochloa crusgalli; seedling stage sealing) | Echinochloa phyllopogon activity level (growth control rate) (Echinochloa phyllopogon; seedling stage sealing) | Huaidao (rice cultivar) plant damage level (Huaidao (rice cultivar)) |
| --- | --- | --- | --- | --- | --- | --- | --- | --- |
| CCn1ncc(NC(=O)[C@H]2C(=O)N(C)C[C@@H]2c2cccc(C(F)(F)F)c2)c1C(F)(F)F [535′] | 9 | 9 | 9 | 0 | – | – | – | – |
| CN1C[C@H](c2cccc(C(F)(F)F)c2)[C@@H](C(=O)Nc2cnn(C)c2[S+](C)[O-])C1=O (some centres unmarked) [539′] | 6 (Level 6: growth control rate greater than or equal to 70% and less than 80%) | 9 | – | 0 | – | – | – | – |
| Cc1cccc([C@H]2CN(C)C(=O)[C@@H]2C(=O)Nc2cnn(C(C)C)c2C(F)(F)F)c1 [526′] | 9 | 9 | 6 (Level 6: growth control rate greater than or equal to 70% and less than 80%) | 0 | – | – | – | – |
| Cc1cc(C)cc([C@H]2CN(C)C(=O)[C@@H]2C(=O)Nc2cnn(C)c2C(F)F)c1 [546′] | 9 | 9 | 9 | 0 | – | – | – | – |
| CN1CC(c2cccc(C(F)(F)F)c2)C(C(=O)Nc2cnn(C)c2F)C1=O (centres unmarked) [Compound 119] | – | – | – | – | 9 | 9 | 9 | 0 |
| COCc1c(NC(=O)[C@H]2C(=O)N(C)C[C@@H]2c2cc(C)cc(C)c2)cnn1C [553′] | 9 | 9 | – | 2 (Level 2: growth control rate greater than or equal to 10% and less than 20%) | – | – | – | – |
| CN1CC(c2cccc(C(F)(F)F)c2)C(C(=O)Nc2cnn(C)c2Br)C1=O (centres unmarked) [Compound 120] | – | – | – | – | 9 | 9 | 9 | 0 |
| CO/N=C/c1c(NC(=O)[C@H]2C(=O)N(C)C[C@@H]2c2cccc(C)c2)cnn1C [532′] | 9 | 9 | 6 (Level 6: growth control rate greater than or equal to 70% and less than 80%) | 0 | – | – | – | – |
| Cc1cccc([C@H]2CN(C)C(=O)[C@@H]2C(=O)Nc2cnn(C)c2S(C)(=O)=O)c1 [531′] | 9 | 9 | 9 | 0 | – | – | – | – |
| CN1C[C@H](c2cc(F)cc(Cl)c2)[C@@H](C(=O)Nc2cnn(C)c2C2CC2)C1=O [555′] | 9 | 9 | 9 | 0 | – | – | – | – |
| COCn1ncc(NC(=O)[C@H]2C(=O)N(C)C[C@@H]2c2cccc(C(F)(F)F)c2)c1C1CC1 [540′] | 9 | 9 | 9 | 0 | – | – | – | – |
| CCn1cc(NC(=O)C2C(=O)N(C)CC2c2cccc(C(F)(F)F)c2)cn1 (centres unmarked) [Compound 456] | 9 | 7 (Level 7: growth control rate greater than or equal to 80% and less than 90%) | – | 0 | – | – | – | – |
| Cc1cccc([C@H]2CN(C)C(=O)[C@@H]2C(=O)Nc2cnn(C3CC3)c2C(F)(F)F)c1 [527′] | 9 | 9 | 6 (Level 6: growth control rate greater than or equal to 70% and less than 80%) | 0 | – | – | – | – |
| CN1C[C@H](c2cccc(C(F)(F)F)c2)[C@@H](C(=O)Nc2cnn(C)c2C(F)(F)F)C1=O [538′] | 9 | 9 | 9 | – | – | – | – | – |
| Cc1cc(C)cc([C@H]2CN(C)C(=O)[C@@H]2C(=O)Nc2cnn(C(C)C)c2C(F)(F)F)c1 [547′] | 9 | 9 | 9 | 0 | – | – | – | – |
| CN1C[C@H](c2cc(F)cc(C(F)F)c2)[C@@H](C(=O)Nc2cnn(C)c2Cl)C1=O [556′] | 9 | 9 | 9 | 2 (Level 2: growth control rate greater than or equal to 10% and less than 20%) | – | – | – | – |
| CN1CC(c2cccc(C(F)(F)F)c2)C(C(=O)Nc2cnn(C)c2Cl)C1=O (centres unmarked) [Compound 1] | – | – | – | – | 9 | 9 | 9 | – |
| Cc1cc(C)cc([C@H]2CN(C)C(=O)[C@@H]2C(=O)Nc2cnn(C3CC3)c2C(F)(F)F)c1 [548′] | 9 | 9 | 6 (Level 6: growth control rate greater than or equal to 70% and less than 80%) | 0 | – | – | – | – |
| CN1C[C@H](c2cc(F)cc(Cl)c2)[C@@H](C(=O)Nc2cnn(C(F)F)c2Cl)C1=O [554′] | 9 | 9 | 9 | 0 | – | – | – | – |
| CN1CC(c2ccc(C(F)(F)F)cc2)C(C(=O)Nc2c[nH]nc2Cl)C1=O (centres unmarked) [Control compound A, reference compound] | 0 | 0 | 0 | – | – | – | – | – |
| CN1CC(c2cccc(C(F)(F)F)c2)C(C(=O)Nc2cn(C)nc2C(F)F)C1=O (centres unmarked) [Compound 457] | 9 | – | – | 0 | – | – | – | – |
| CCn1ncc(NC(=O)[C@H]2C(=O)N(C)C[C@@H]2c2cccc(C)c2)c1C(F)(F)F [525′] | 9 | 9 | 9 | 2 (Level 2: growth control rate greater than or equal to 10% and less than 20%) | – | – | – | – |
| CN1CC(c2cccc(F)c2)C(C(=O)Nc2cnn(C)c2Cl)C1=O (centres unmarked) [Compound 15] | – | – | – | – | 9 | 9 | 6 (Level 6: growth control rate greater than or equal to 70% and less than 80%) | – |
| Cc1cc(C)cc([C@H]2CN(C)C(=O)[C@@H]2C(=O)Nc2cnn(C)c2[S+](C)[O-])c1 (some centres unmarked) [552′] | 9 | 9 | – | 0 | – | – | – | – |
| CN1CC(c2ccc(F)c(F)c2)C(C(=O)Nc2cnn(C)c2Cl)C1=O (centres unmarked) [Compound 116] | – | – | – | – | 9 | 7 (Level 7: growth control rate greater than or equal to 80% and less than 90%) | 6 (Level 6: growth control rate greater than or equal to 70% and less than 80%) | – |
| CN1CC(c2ccc(C(F)(F)F)cc2)C(C(=O)Nc2cnn(C)c2Cl)C1=O (centres unmarked) [Compound 249] | – | – | – | – | 9 | 8 (Level 8: growth control rate greater than or equal to 90% and less than 100%) | 8 (Level 8: growth control rate greater than or equal to 90% and less than 100%) | – |
| CN1C[C@H](c2cc(Br)cc(C(F)(F)F)c2)[C@@H](C(=O)Nc2cnn(C(F)F)c2Cl)C1=O [557′] | 9 | 9 | 6 (Level 6: growth control rate greater than or equal to 70% and less than 80%) | – | – | – | – | – |
